By pIC50 is commonly meant −log10 of the IC50, conventionally taken in molar units. What is called LD50 is the dose at which mortality reaches 50%.

In one data set the test system is SQ20B. Briefly: Clonogenic survival of SQ20B with chelerythrine chloride and adriamycin. Type of data set: cell-based, human.
The test system of a further data set is SQ-20B xenografts. Briefly: SQ-20B xenograft tumor growth in nude mice. Type of data set: in vivo. To be noted: for mean tumor volume: IP. The method, then: Athymic (nude) mice were injected SC in the right hind limb with 5×10^6 SQ20B cells. Tumors were allowed to grow for 8 days at which time treatment was started. Control mice were weighed and injected IP with PBS on days 8, 10, and 12. Treatment group 2 (n=10 were injected once IP on days 8, 10, and 12 with 2.5 mg/kg chelerythrine chloride, treatment group 3 (n=8) were injected once IP on days 8, 10, and 12 with 5 mg/kg chelerythrine chloride, and treatment group 4 (n=8) were injected once IP on days 8, 11 and 14 with 5 mg/kg chelerythrine chloride. Tumor volume was determined on days 8, 10, 13, 15, 17, 21. Each data point represents the mean of 1-3 individual studies +/−SEM. The Mann-Whitney Rank Sum Test (p<0.05) denoted in the graphs by “*”.
SQ-20B (1-5×10^6 tumor cells were injected into the right hind limbs of Sprague-Dawley nude mice (Fredrick Cancer Research Institute, Fredrick Md.). Xenografts were grown for 2-3 wk at which time animals were sorted into treatment groups such that the mean tumor volume was 45 mm^3+/−4.5 mm^3 (SD). At day 0, initial tumor volume was determined by direct measurement with calipers, and tumor volume was deterred and calculated using the equation 1×w^2×0.5 (Hallahan et al., 1995). During treatment tumor volumes were measured twice weekly and are presented as percent of original tumor volume. Data are presented as fractional tumor volume +/−SEM. Significance analyzed using the Mann-Whitney Rank Sum Test (p<0.05) and denoted in the graphs by “*”.
(§1) Control mice (n=12) were weighed and injected IP with PBS on days 8, 10, and 12. To determine the proper injection volume, the weight of a mouse (in grams) was divided by 100, and the resulting number (in μl ) was used. Chelerythrine was dissolved in the corresponding volume of PBS. Mice in treatment group 2 (n=10) were injected IP on days 8, 10, and 12 with […]. Treatment group 3 (n=8) mice revere injected IP on days 8, 11, and 14 with 5 mg/kg chelerythrine chloride. Treatment group 4 mice (n=10) were injected IP on days 8, 11, 14, and 17 with 5 mg/kg chelerythrine chloride. Volume was determined on days 8, 10, 13, 15, 17, 21. Body weight was measured on days 8, 9, 10, 11, 12, 13, 14, 15, 16, 17, 18, 21. Each data point represents the mean of 1-3 individual studies (minimum of 8 mice/treatment groups).
Mice bearing SQ-2QB xenografts (n>8 for all groups) were injected IP with 2.5 mg/kg on days 8, 10, 12 (Group 2, n=10), 5mg/kg on days 8, 10, 12 (Group 3, n=8), and 5 mg/kg on days 8, 11, 14 (Group 4, n=8). […] By day 21, the mean tumor volumes measured 370 mm^3 in control group, 215 mm^3 in group 1, 197 mm^3 in group 2, and 115 mm^3 in group 3. […]

The test system of a further data set is SQ20B cells. Briefly: MTT cytotoxicity assay, SQ20B, dependence on exposure time. To be noted: Homo sapiens, read-out: ED50 (the source's name). Type of data set: cell-based. The procedure:
Cytotoxicity was evaluated using modifications of a described MTT assay (Hansen et al., 1989). Briefly, cells growing as a monolayer were plated at a density of 500 cells/well in 96 well-plates and allowed to grow for 24 h. […] 6-13 days after drug treatment, 25 μl of a 5 mg/ml solution of MTT was added to each well followed 4 h later by the addition of 100 μl lysing buffer (20% sodium dodecyl sulfate, 50% N, N-dimethylformamide and 0.8% acetic acid, pH 4.7) for an additional 22 h. A microplate reader set at 570 nm was used to determine the absorbance. Results are expressed as the fraction of the optical density determined for cells treated with drug compared to those treated with vehicle.
The cytotoxic effects of chelerythrine were evaluated in 9 human tumor cell lines to assess its spectrum of activity. Chelerythrine decreased cell viability as determined by the MTT assay in a dose-dependent manner in MCF7 breast (wt p53)(Blagosklonny et al., 1995), MCF7ADR breast (resistant to adriamycin), HT29 colon (mutant p53)(Shao et al., 1997), DaOY brain (mutant p53)(U et al., 1998), and LnCaP (mutant p53) (Carroll et al., 1993) prostate cells (FIG. 2). The effective dose required to inhibit the growth by 50% of the cells (ED50) ranged between 2 and 5 μM upon exposure to drug for 4 h. […]
On the technique in general: Tetrazolium assays rely on reduction of a dye to a coloured formazan, in cell work by metabolically active cells.

The next data set relates to SQ-20B cells. Briefly: DAPI staining of cell and nuclear morphology (apoptosis). Type of data set: cell-based, human. To be noted: 5 μM chelerythrine, 72 h following treatment. The procedure:
DAPI was used to visualize nuclei […] and overlaid to the phase contrast image. Left, untreated control cells, right 5 μM chelerythrine treated cells.
5×10^5 SQ-20B cells were centrifuged at 1000 rpm and resuspended in approximately 100 μl of media. The cell suspension was then […] with 100 μl of DAPI (4′, 6-iamidino-2-phenylindole, Sigma, 1 μg/ml in PBT [PBS+1% Triton X-100]. One drop of this mixture was then placed on a microslide with a coverslip. The cells were viewed by fluorescence microscopy using an Olympus BX-40 microscope with a 100 Watt Mercury lamp, a 16 or 40×Fluorite objective, N.A. 0.75, (Leco #1-UB527) and a UV filter cube (ex 330-385 nm, em 420 nm, wide band pass, Leco #U-M536). Images were photographed using an Optronics cooled low-light video camera (Leco #DEI-470TB) with a 2× coupler (Leco #HR200-CMT). The image was saved to a digital file at 72 dpi for subsequent image processing with Paint Shop Pro 5 (JASC) running on a Windows NT4 workstation.
The inventors examined whether the concentrations of chelerythrine that decrease viability in the MTT assay induce apoptosis of SQ-20B cells. The inventors examined cell and nuclear morphology by DAPI staining (FIG. 3). Following exposure of SQ-20B cells to 5 μM chelerythrine, morphological changes consistent with apoptosis were observed (FIG. 3A) in nearly 100% of the cells 72 h following treatment.

A further data set has as its system L-1210 tumor cells. Conditions: cited from earlier work.
The test system of data set [1] is SQ-20B, JSQ-3, SCC-35 and SCC61 cells. In words: MTT cytotoxicity assay, oral tumor cell lines. Type of data set: cell-based. Conditions: Homo sapiens, SQ20B, range over SQ-20B, read-out: ED50 (the source's name). The method, then:
(§2) FIG. 2A depicts that MCF7 (closed circle), MCF7ADR (open circle), HT29 (open square), DAOY (closed triangle) and LnCaP (open triangle) cells were exposed to fresh medium containing increasing concentrations of chelerythrine chloride for 4 h. After 6 days (MCF7, MCF7 ADR, HT29), 7 days (DAOY) or 13 days (LnCAP), MTT analysis was performed to determine cell density. Inhibition of cell growth relative to control (zero drug addition) was calculated for each concentration. Each point represents the mean of three determinations. […] Inhibition of cell growth relative to control (zero drug addition) was calculated for each concentration. […]
(§3) Cytotoxicity was evaluated using modifications of a described MTT assay (Hansen et al., 1989). […] A microplate reader set at 570 nm was used to determine the absorbance. Results are expressed as the fraction of the optical density determined for cells treated with drug compared to those treated with vehicle.
(§4) The cytotoxic effects of chelerythrine were evaluated in 9 human tumor cell lines to assess its spectrum of activity. Chelerythrine decreased cell viability as determined by the MTT assay in a dose-dependent manner in MCF7 breast (wt p53)(Blagosklonny et al., 1995), MCF7ADR breast (resistant to adriamycin), HT29 colon (mutant p53)(Shao et al., 1997), DaOY brain (mutant p53)(U et al., 1998), and LnCaP (mutant p53) (Carroll et al., 1993) prostate cells (FIG. 2). […]

The nature of data set [2]: Acute lethality (LD50), intraperitoneal. To be noted: mouse, in vivo; intraperitoneal (IP) in mice; read-out: LD50 (dose causing a 50% mortality). The method, then: Basal activity of the enzyme (the activity in the absence of Ca^++, phosphatidylserine and dioleine) was not affected. In the present invention, the LD50 (dose causing a 50% mortality) was 20 mg/kg intraperitoneal (IP) in mice.

Data set [3] has as its system MCF7, MCF7ADR, HT29, DaOY and LnCaP cells. Briefly: MTT cytotoxicity assay, tumor cell line panel. The data set is classed as cell-based. Conditions: Homo sapiens, exposure to drug for 4 h, range over MCF7, MCF7ADR, read-out: ED50 (effective dose required to inhibit the growth by 50% of the cells). The method, then:
as §2, §3, §4

Data set [4] is described as follows: Body weight and deaths in treated xenograft-bearing mice. Type of data set: in vivo. Conditions: 2.5-5 mg/kg IP. The method, then: Mice were weighed on days 8, 9, 10, 11, 12, 13, 14, 15, 16, 17, 18, 21. Symbols represent the mean weight of animals in the representative treatment groups.
as §1
At no time did body weight of any study animal fall below 90% of the initial weight at the beginning of treatment. […] Similar results were obtained in two independent studies.

pEC50, pIC50: −log10 of the molar value. Like-named read-outs stand apart in the source and are kept apart here.

As for `COc1cccc2c1C(=O)c1c(O)c3c(c(O)c1C2=O)C[C@@](O)(C(=O)CO)C[C@@H]3O[C@H]1C[C@H](N)[C@H](O)[C@H](C)O1` [adriamycin, reference compound], the “survival (clonogenic)” value in the data set with SQ20B (adriamycin 1 ng/mL alone (0 chelerythrine)) came out at 1.09; in the data set on SQ20B (adriamycin 10 ng/mL alone (0 chelerythrine)) it was 0.822; in the data set with SQ20B (adriamycin 50 ng/mL alone (0 chelerythrine)), 0.359.
As to `COc1ccc2c(c[n+](C)c3c4cc5c(cc4ccc23)OCO5)c1OC` [chelerythrine, 1,2-dimethoxy-12-methyl[1,3]benzodioxolo[5,6-c]phenanthridinium], the “percent change in volume of treated tumors compared to control tumors (%T/C)” value in the data set on SQ-20B xenografts (day 21, all treatment groups) was “less than 40%”. The mean tumor volume was found to be 215 mm^3 with SQ-20B xenografts (day 21, group 1 as printed); 197 mm^3 in the data set with SQ-20B xenografts (day 21, group 2 as printed); 115 mm^3 with SQ-20B xenografts (day 21, group 3 as printed). The pEC50 with SQ20B cells (exposed for 4 h) was 5.43; with SQ20B cells (exposed for 8 h), 5.74; in data set [1], 5.28 to 5.40; in [3], 5.30 to 5.70. The “cells with morphological changes consistent with apoptosis” value with SQ-20B cells was around 100%. Further, the pIC50 in the data set on L-1210 tumor cells is 7.28. In addition, in [2], the 50% lethal dose (LD50) was 20 mg/kg. Moreover, in data set [4], the treatment related deaths result is “no treatment related deaths”. Moreover, in data set [4] (any study animal, at any time), the “body weight relative to the initial weight at the beginning of treatment” value is reported as at least 90%. Besides, the “survival (clonogenic)” value was 0.99 in the data set on SQ20B (chelerythrine chloride 2 μM alone (0 ng/mL adriamycin)), 0.103 in the data set with SQ20B (chelerythrine chloride 4 μM alone (0 ng/mL adriamycin)) and 0.034 in the data set with SQ20B (chelerythrine chloride 6 μM alone (0 ng/mL adriamycin)).
